Patent US10065965B2, “Imidazo[1,2-B][1,2,4]triazine derivatives as antiparasitic agents” (GlaxoSmithKline Intellectual Property Development Limited, priority 2015, dated 2018)

Tests used:
Format in all cases: cell-based
Trypanosoma brucei = assay: Assay 3 Trypanosoma brucei cell growth inhibition assay; conditions: T. b. brucei BSF427, 69 h + 4 h resazurin, maximum threshold 8.0, read-out: pEC50 value against Trypanosoma brucei (converted)
Method: Measurement of the ability of the compounds to inhibit trypanosome (T. b. brucei, BSF427, VSG118) cell growth was performed using a modification of the cell viability assay previously described by Raz et al. (Raz B.; Iten M.; Grether-Buhler Y.; Kaminski R.; Brun R. The Alamar Blue assay to determine drug sensitivity of African trypanosomes (T. b. rhodesiense and T. b. gambiense) in vitro. Acta Trop. 1997, 68, 139-147). Compounds were dissolved in DMSO at a top concentration of 10 mM and serially diluted in half log steps to achieve a range of final assay concentrations of 50 μM to 0.5 nM. Compound at each concentration (200-fold final) was added to clear 96-well tissue culture plates in a volume of 1 μL. Then 2000 cells per well in relevant growth medium (HMI-9T for T. brucei, a modification of HMI-9 as described by Hurumi et al. (Hirumi H.; Hirumi K. Continuous cultivation of Trypanosoma brucei blood stream forms in a medium containing a low concentration of serum-protein without feeder cell-layers. J. Parasitol. 1989, 75, 985-989.) where 0.2 mM 2-mercaptoethanol was replaced with 0.056 mM thiolglycerol, and MEM with 10% FBS for MRC5) were then added to columns 1-11 of the plates in a volume of 199 μL. To column 12, 200 μL of medium was added to provide a no cells control. Plates were then incubated at 37° C. in an atmosphere of 5% CO2 for 69 h, before the addition of 20 μL of 500 μM rezasurin solution, and a further incubation period of 4 h. Plates were then read on a BioTek flx800 fluorescent plate reader, and percentage inhibition was compared to the maximum and minimum assay controls. Concentration effect curves were fitted using nonlinear regression using XLFit 4.2 and EC50 values determined.

Leishmania donovani = assay: Assay 1 intramacrophage Leishmania donovani assay (potency readout); conditions: amastigotes in PMA-treated THP-1 macrophages, 96 h, average number of amastigotes per cell, minimum threshold 4.3, read-out: pEC50 value against Leishmania donovani (converted)
In short: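 THP-1 cells were differentiated with 20 nM PMA for 75 h, infected with amastigotes at MOI 5 for 16 h, then exposed to compound for 96 h in a ten-point 1:3 series from a 50 μM top concentration. Cells were fixed, DAPI/CellMask-stained and imaged by high-content microscopy. pEC50 was derived from amastigotes per cell and from THP-1 count.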

[1] = Assay 5 Leishmania donovani intracellular assay, cytotoxicity against THP-1 cells; conditions: human, total number of THP-1 cells, minimum threshold 4.3, read-out: cytotoxicity against THP-1 cells, pEC50 value (converted)
Method: Compounds were dispensed into black 384-well assay plates (Greiner) by acoustic dispensing (LabCyte ECHO). For potency determinations, eleven-point, one in three dilution curves were generated, with a top concentration of 50 μM. THP-1 human monocytes cells were dispensed in T225 tissue culture flasks and differentiated using 30 nM of PMA, after 24 hours they were infected overnight using Leishmania donovani expressing Green Fluorescent Protein (eGFP) amastigotes in the same T225 tissue culture flasks at a multiplicity of infection of 10. Next, any remaining free amastigotes were washed away with PBS and the infected THP-1 cells were harvested by trypsinisation. The infected cells were then plated into 384-well plates containing the compounds to be tested, at 3000 cells per well in RPMI media with 2% FBS and 25 mM Sodium bicarbonate. After 96 h incubation at 37° C. in presence of 5% CO2, the plates were fixed with 4% formaldehyde for 30 minutes, washed with PBS and stained with 0.1 mg/mL of DAPI for 30 minutes and washed again with PBS. The plates were imaged on a Perkin Elmer Opera high-content imaging system using a 20× air objective with two expositions, one for DAPI stain and other for eGFP. Images were analysed using the Acapella building blocks system (Perkin Elmer). The image analysis algorithm first identified the THP-1 nuclei followed by demarcation of the cytoplasm and identification of intracellular amastigotes. This algorithm reported mean number of parasites per THP-1 cell, the percentage of infected THP-1 cells and the total number of THP-1 cells.

O=C(Nc1ccc(F)c(-c2cn3nc(N4CCOCC4)cnc3n2)c1)N1CCCC1 [Example 1, N-(4-fluoro-3-(2-morpholinoimidazo[1,2-b][1,2,4]triazin-6-yl)phenyl)pyrrolidine-1-carboxamide]
EC50 (Trypanosoma brucei): < 10 nM
EC50 (Leishmania donovani): 631 nM
EC50 at 96 h [1]: > 50100 nM
